Among the data in patent US7326722B2, “N-[Phenyl(piperidin-2-yl)methyl]benzamide derivatives, their preparation and their application in therapy” (Sanofi-Aventis, priority 2002, dated 2008) are melting point values, retold here.

By melting point is commonly meant the temperature, or range, at which the solid turns liquid.

Structures can show the parent of a compound that is named as a salt.

Turning to `C[N+]1([O-])CCCCC1C(NC(=O)c1cccc(C(F)(F)F)c1Cl)c1ccccc1` (centres unmarked) (as salt: HCl) [Compound No. 69], the melting point fell in the range of 126 to 128 °C.

In turn, `C[N+]1([O-])CCCCC1C(NC(=O)c1cccc(C(F)(F)F)c1Cl)c1ccccc1` (centres unmarked) (as salt: HCl) [Compound No. 70] returned a melting point of 100 to 102 °C.
